Experimental data: patent US12104178B2, “DHFR tunable protein regulation” (Obsidian Therapeutics, Inc., priority 2017, dated 2024)

Experiments:
[1] = system: human donor T cells; assay: Shield-1 concentration and time dependent IL12 p40 in human T cells (Tables 94-96); assay type: cell-based; parameters: IL12 levels in T cells (IL12 p40, MSD): unit not given beside the values; conditions: for EC50: IL12 p40 from OT-IL12-026 T cells; for IL12 levels in T cells (IL12 p40, MSD): OT-IL12-026 T cells, 24 hours
Procedure: On day 1, cells were transduced with lentivirus for construct OT-IL12-026 at MOIs of 40, 13.3 or 4.4. […] Cells were then plated at 100,000 per well on U-bottom 96-well plate. On day 14, cells were treated for 24 hours with varying concentrations of Shield-1 or vehicle control. On day 15, the supernatant was harvested and IL12 p40 levels were measured by MSD assay. In the Table 94, MOI stands for multiplicity of infection.
A time course experiment was also performed using Shield-1 at a dose of 1 μM. T cells transduced with OT-IL12-020, OT-IL12-026 or empty vector were treated with Shield-1 or vehicle control for 4, 8, 16 and 24 hours. IL12 p40 levels were measured using MSD assay. The stabilization ratio was measured as the ratio of expression of IL12 in the presence of the stimulus to the expression in the absence of the stimulus.

[2] = system: HCT-116; assay: DD regulated IL2, IL2 ELISA with Shield-1 dose; assay type: cell-based, human; conditions: read-out: EC50 of Shield-1, IL2 ELISA (FIG. 58); HCT-116 transduced with OT-IL2-001
Description: OT-IL2-001 (FKBP) was transduced into human colorectal carcinoma line, HCT-116.

[3] = system: human donor T cells; assay: Shield-1 concentration and time dependent IL12 p40 in human T cells (Tables 94-96); assay type: cell-based; conditions: 24 h

In the case of `CC[C@H](C(=O)N1CCCC[C@H]1C(=O)O[C@H](CCc1ccc(OC)c(OC)c1)c1cccc(OCCN2CCOCC2)c1)c1cc(OC)c(OC)c(OC)c1` [Shield-1], the EC50 ([1]; MOI 4.4) is reported as 84 nM, the EC50 ([1]; MOI 13.3) is reported as 94 nM and the EC50 ([1]; MOI 40) is reported as 130 nM. For the same compound, the “IL12 levels in T cells (IL12 p40, MSD)” value ([1]; MOI = 4.4, Shield-1 0.1 nM) was 49.44, the “IL12 levels in T cells (IL12 p40, MSD)” value ([1]; MOI = 4.4, Shield-1 1 nM) was 50.44 and the “IL12 levels in T cells (IL12 p40, MSD)” value ([1]; MOI = 4.4, Shield-1 5 nM) was 50.44. For the same compound, the “IL12 levels in T cells (IL12 p40, MSD)” value ([1]; MOI = 4.4, Shield-1 10 nM) was 178.18, the “IL12 levels in T cells (IL12 p40, MSD)” value ([1]; MOI = 4.4, Shield-1 50 nM) was 357.11 and the “IL12 levels in T cells (IL12 p40, MSD)” value ([1]; MOI = 4.4, Shield-1 100 nM) was 710.56. For the same compound, the “IL12 levels in T cells (IL12 p40, MSD)” value ([1]; MOI = 4.4, Shield-1 500 nM) was 1284.95, the “IL12 levels in T cells (IL12 p40, MSD)” value ([1]; MOI = 4.4, Shield-1 1000 nM) was 1152.28 and the “IL12 levels in T cells (IL12 p40, MSD)” value ([1]; MOI = 4.4, Shield-1 2000 nM) was 1071.54. For the same compound, the “IL12 levels in T cells (IL12 p40, MSD)” value ([1]; MOI = 13.3, Shield-1 0.1 nM) was 48.10, the “IL12 levels in T cells (IL12 p40, MSD)” value ([1]; MOI = 13.3, Shield-1 1 nM) was 48.61 and the “IL12 levels in T cells (IL12 p40, MSD)” value ([1]; MOI = 13.3, Shield-1 5 nM) was 49.54. The “IL12 levels in T cells (IL12 p40, MSD)” value ([1]; MOI = 13.3, Shield-1 10 nM) was 220.08, the “IL12 levels in T cells (IL12 p40, MSD)” value ([1]; MOI = 13.3, Shield-1 50 nM) was 420.72 and the “IL12 levels in T cells (IL12 p40, MSD)” value ([1]; MOI = 13.3, Shield-1 100 nM) was 972.56. The “IL12 levels in T cells (IL12 p40, MSD)” value ([1]; MOI = 13.3, Shield-1 500 nM) was 1307.70, the “IL12 levels in T cells (IL12 p40, MSD)” value ([1]; MOI = 13.3, Shield-1 1000 nM) was 1559.43 and the “IL12 levels in T cells (IL12 p40, MSD)” value ([1]; MOI = 13.3, Shield-1 2000 nM) was 1577.99. For the same compound, the “IL12 levels in T cells (IL12 p40, MSD)” value ([1]; MOI = 40, Shield-1 0.1 nM) was 88.30, the “IL12 levels in T cells (IL12 p40, MSD)” value ([1]; MOI = 40, Shield-1 1 nM) was 80.07 and the “IL12 levels in T cells (IL12 p40, MSD)” value ([1]; MOI = 40, Shield-1 5 nM) was 88.83. For the same compound, the “IL12 levels in T cells (IL12 p40, MSD)” value ([1]; MOI = 40, Shield-1 10 nM) was 374.90, the “IL12 levels in T cells (IL12 p40, MSD)” value ([1]; MOI = 40, Shield-1 50 nM) was 608.85 and the “IL12 levels in T cells (IL12 p40, MSD)” value ([1]; MOI = 40, Shield-1 100 nM) was 1293.01. For the same compound, the “IL12 levels in T cells (IL12 p40, MSD)” value ([1]; MOI = 40, Shield-1 500 nM) was 1861.36, the “IL12 levels in T cells (IL12 p40, MSD)” value ([1]; MOI = 40, Shield-1 1000 nM) was 2346.15 and the “IL12 levels in T cells (IL12 p40, MSD)” value ([1]; MOI = 40, Shield-1 2000 nM) was 2330.88. The EC50 [2] was 50 nM and the “Shield-1 concentration at which viability was reduced” value [3] was “greater than 5 μM”.
